In patent publication US8323956B2, “Distal tip of biosensor transducer comprising enzyme for deamination” (Colorado State University Research Foundation, priority 2001, dated 2012):

Columns and labels:
melamine deaminase TriA = target: T1, melamine deaminase TriA (Paracidovorax citrulli, UniProt Q9EYU0); assay: TriA (melamine deaminase) biosensor response, cells in calcium alginate on pH-sensitive optical fiber; assay type: cell-based, Escherchia coli DH5α pJS3
T1 construct: expressed in transfected cells; host or cells: Escherichia coli DH5α pJS3
Source text: Cells of Escherchia coli DH5α pJS3 (Seffernick et al., J. Bact. 183 (8), 2405-2410, 2001) were immobilized in calcium alginate on the tip of an optical fiber coated with a PVA-fluoresceinamine conjugate, a pH-sensitive fluorophore. The plasmid pJS3 contains the gene triA, and thus the E. coli cells can express the melamine deaminase TriA, which catalyzes the cleavage of one of the amine groups. The products of this reaction are ammeline (2-hydroxy-4,6-diamino-s-triazine) and ammonia.
The release of ammonia led to an increase in pH on the tip of the optical fiber, which was detected as an increase in the fluorescence of fluoresceinamine (FIG. 21).
The melamine deaminase biosensor was also responsive to the related amine-containing chemical 2-chloro-4,6-diamino-s-triazine (CAAT) (Table 12 and FIG. 22).

[1] = target: T2, LinB haloalkane dehalogenase (Sphingobium indicum, UniProt D4Z2G1); assay: LinB biosensor sensitivity for halogenated hydrocarbons
T2 sequence (D4Z2G1 1-296): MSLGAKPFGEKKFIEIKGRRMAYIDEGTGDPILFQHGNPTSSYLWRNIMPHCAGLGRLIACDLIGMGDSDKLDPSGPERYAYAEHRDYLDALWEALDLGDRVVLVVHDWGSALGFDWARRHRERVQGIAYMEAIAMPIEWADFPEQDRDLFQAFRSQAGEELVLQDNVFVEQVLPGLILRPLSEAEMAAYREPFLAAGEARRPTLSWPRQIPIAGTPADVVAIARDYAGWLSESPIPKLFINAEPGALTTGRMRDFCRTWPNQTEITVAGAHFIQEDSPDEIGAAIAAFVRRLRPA
Source text: The haloalkane dehalogenase LinB was used to develop biosensors for several halogenated hydrocarbons.

[2] = target: T2, LinB haloalkane dehalogenase; conditions: reported by Damborsky et al. 2001; cited from earlier work
E. coli pAQN (linB) = target: T3, E. coli pAQN (linB) (Sphingobium indicum, UniProt D4Z2G1); assay: Biosensor response to 1,2-dibromoethane measured repeatedly over 50 days; assay type: cell-based; conditions: 5 ppb of 1,2-dibromoethane, in more than 50 days
T3 construct: expressed in transfected cells; host or cells: E. coli carrying plasmid pAQN
Procedure: FIG. 17 depicts a biosensor response to 5 μg/L 1,2-dibromoethane using E. coli pAQN (linB) as the biocomponent, measured repeatedly over 50 days, according to an embodiment.
The release of a proton from the dehalogenation reaction is detected as a pH change at the end of the optical fiber, and thus as a change in fluorescence intensity (FIG. 14). Fiber optic biosensors for 1,2-dichloroethane (DCA), ethylene dibromide (EDB), atrazine, 1-chlorohexane and Lindane (γ-hexachlorocyclohexane) have been developed (Campbell, 1998; Das, N., Development and Characterization of a Biosensor for Atrazine in Groundwater, Chemical Engineering. 2000, Colorado State University: Fort Collins). These biosensors have linear response ranges over several orders of magnitude in concentration, and detection in the ppt (ng/L) range has been achieved (FIG. 15). […] This fact, and the stability of the enzymes, allows the biosensors to retain activity for many weeks. In one test (FIG. 16), the biosensor response to 5 ppb of 1,2-dibromoethane declined by only 20% in more than 50 days. Sensitive measurement is still possible even at the end of the test; only a recalibration is required.

T1 sequence (Q9EYU0 whole entry): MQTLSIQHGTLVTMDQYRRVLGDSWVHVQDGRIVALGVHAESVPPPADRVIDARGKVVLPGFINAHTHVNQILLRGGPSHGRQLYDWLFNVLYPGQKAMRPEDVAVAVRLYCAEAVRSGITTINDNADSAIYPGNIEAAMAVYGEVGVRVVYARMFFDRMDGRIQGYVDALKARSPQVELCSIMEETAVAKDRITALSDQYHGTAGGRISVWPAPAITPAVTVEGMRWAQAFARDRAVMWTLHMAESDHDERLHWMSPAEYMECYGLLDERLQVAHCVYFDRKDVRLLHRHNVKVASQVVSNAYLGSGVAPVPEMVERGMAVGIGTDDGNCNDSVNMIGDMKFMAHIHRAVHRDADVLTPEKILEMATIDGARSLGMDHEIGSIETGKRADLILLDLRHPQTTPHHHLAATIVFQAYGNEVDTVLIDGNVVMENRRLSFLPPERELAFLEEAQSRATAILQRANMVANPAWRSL

Row | Structure (SMILES) | Response (count) (melamine deaminase TriA; 0.12 mg/L) | Response time (melamine deaminase TriA; 0.12 mg/L) [h] | Response (count) (melamine deaminase TriA; 1.21 mg/L) | Response time (melamine deaminase TriA; 1.21 mg/L) [h] | Biosensor sensitivity (ΔV/ppb analyte) [1] | LinB activity (% of 1-chlorobenzene rate) [2] [%] | decline of biosensor response (E. coli pAQN (linB)) [%]
1 | Nc1nc(N)nc(N)n1 [Melamine, 2,4,6-triamino-1,3,5-triazine] | 1000 | 20 | 2700 | 16 |  |  | 
2 | CCCCCCCl [1-chlorohexane] |  |  |  |  | 0.21 ΔV/ppb analyte | 145 | 
3 | BrCCBr [1,2-dibromoethane] |  |  |  |  | 0.29 ΔV/ppb analyte | 355 | 20
4 | Nc1nc(N)nc(Cl)n1 [CAAT, 2-chloro-4,6-diamino-s-triazine] | 150 | 2 | 800 | 10 |  |  | 
